The source made the active and inactive calls.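 Rule for the calls: active = concentration giving half-maximal inhibition at or below 20 micromolar; inactive = half-maximal concentration above 20 micromolar, or not dose tested.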
Test system: Jurkat E6.1 viability, ATP luminescence, 48 h
Test: Jurkat cell viability reduction – Jurkat E6.1, NIH starter set, primary screen (AID 364)

Row | Structure (SMILES) | CC50
1 | CC1(c2ccccc2)NCCN2C(=O)CSC21 (configuration not stated) | > 20000 nM (inactive)
2 | COc1cc(C2C(C#N)=C(N)Oc3cc(N)ccc32)cc(OC)c1OC (configuration not stated) | 326 nM
3 | CC(=O)O[C@@]12CO[C@@H]1C[C@H](O)[C@@]1(C)C(=O)[C@H](O)C3=C(C)[C@@H](OC(=O)[C@H](O)[C@@H](NC(=O)OC(C)(C)C)c4ccccc4)C[C@](O)([C@@H](OC(=O)c4ccccc4)[C@H]21)C3(C)C | 55.6 nM
4 | COc1ccc(Nc2cc(C)nc(-n3nc(C)cc3C)n2)cc1 | 188 nM
5 | COc1ccc2c(c1OC)C(=O)N1c3ccccc3C(=O)N(c3ccccc3F)C21 (configuration not stated) | > 20000 nM (inactive)
6 | COc1ccc(CCn2c(=N)c(C#N)cc3c(=O)n4ccccc4nc32)cc1 | > 20000 nM (inactive)
7 | COc1ccccc1-c1nnc2n1N=C(c1ccc(O)c(O)c1)CS2 | 58.2 nM
8 | CCOC(=O)CSC1=C(C#N)C(c2ccc3c(c2)OCO3)CC(=O)N1 (configuration not stated) | 6580 nM
9 | COc1cccc(Cn2c(NCc3ccco3)nc3c2c(=O)n(C)c(=O)n3C)c1 | 2550 nM
10 | CC[C@]1(O)C[C@@H]2CN(CCc3c([nH]c4ccccc34)[C@@](C(=O)OC)(c3cc4c(cc3OC)N(C)[C@H]3[C@@](O)(C(=O)OC)[C@H](OC(C)=O)[C@]5(CC)C=CCN6CC[C@]43[C@@H]65)C2)C1 | 13.6 nM
11 | COc1cc([C@@H]2c3cc4c(cc3[C@H](O)[C@H]3COC(=O)[C@H]23)OCO4)cc(OC)c1OC | 34.9 nM
12 | N#CC1=C(SCC(=O)c2ccccc2)NC2=C(C(=O)CCC2)C1c1ccco1 (configuration not stated) | 1280 nM
13 | COc1cccc2c(=O)c(SC(F)(F)C(F)C(F)(F)F)c(C)[nH]c12 (configuration not stated) | 5130 nM
14 | Nc1nc(Cl)nc2c1ncn2[C@H]1C[C@H](O)[C@@H](CO)O1 | 1810 nM
15 | N#CC1=C(SCC(=O)c2ccc(Cl)cc2)NC2=C(C(=O)CCC2)C1c1ccco1 (configuration not stated) | 2790 nM
16 | N#CC1=C(N)NC(SCc2ccc(F)cc2)=C(C#N)C12CCCCC2 | 8190 nM
17 | Cc1ccc(NC(=O)CSc2nnc(-c3ccco3)c(-c3ccco3)n2)cc1 | 1710 nM
18 | COc1ccc(C(=O)C(CN2CCCC2)c2ccccc2)cc1 (configuration not stated) | 7210 nM
19 | CCCCCOc1ccc(C(=O)NCC(=O)NCC(=O)OCC)cc1 | > 20000 nM (inactive)
20 | COc1cccc(N2CCN(c3ncnc4c3[nH]c3ccc(F)cc34)CC2C)c1 (configuration not stated) | 2270 nM
21 | c1coc(CNc2ncnc3ccccc23)c1 | 2400 nM

Row | Structure (SMILES) | CC50
22 | CC(C)NCc1c(O)c(Br)cc2oc3c(c12)CCCC3 | > 20000 nM (inactive)
23 | CC(=O)O[C@H]1C(=O)[C@]2(C)[C@H]([C@H](OC(=O)c3ccccc3)[C@]3(O)C[C@H](OC(=O)[C@H](O)[C@@H](NC(=O)c4ccccc4)c4ccccc4)C(C)=C1C3(C)C)[C@]1(OC(C)=O)CO[C@@H]1C[C@@H]2O | 43.4 nM
24 | Cc1ccc2nc(NCc3ccccc3)[nH]c2c1 | 3240 nM
25 | Cc1cccc(-c2nnc3n2N=C(c2ccc(Br)cc2)CS3)c1 | > 20000 nM (inactive)
26 | c1cc2c(cc1C1=Nn3c(nnc3C3CCCCC3)SC1)OCO2 | 6930 nM
27 | CC[C@H]1CN2CCc3cc(OC)c(OC)cc3[C@@H]2C[C@@H]1C[C@H]1NCCc2cc(OC)c(OC)cc21 | 58.2 nM
28 | COc1ccc2c(c1OC)C(=O)O[C@@H]2[C@H]1c2c(cc3c(c2OC)OCO3)CCN1C | > 20000 nM (inactive)
29 | COc1cccc2c1C(=O)c1c(O)c3c(c(O)c1C2=O)C[C@@](O)(C(C)=O)C[C@@H]3O[C@H]1C[C@H](N)[C@H](O)[C@H](C)O1 | 151 nM
30 | Cn1c(Cl)cnc1C1CC(=O)c2cc(Cl)ccc2O1 (configuration not stated) | 7300 nM
31 | CCCOc1ccc2nc(NC(=O)OC)[nH]c2c1 | 178 nM
32 | COc1ccc(C2=Nn3c(nnc3-c3ccccc3)SC2)cc1OC | 5630 nM
33 | c1ccc2c(c1)CCN(c1ncnc3c1[nH]c1ccccc13)C2 | 1560 nM
34 | Clc1ccc(-n2ncc3c(NCc4ccco4)ncnc32)cc1 | 3880 nM
35 | N=c1c2c(-c3ccccc3)c(-c3ccccc3)n(Cc3ccccc3)c2ncn1CCCn1ccnc1 | 19900 nM
36 | COc1ccc(OC)c(NS(=O)(=O)c2ccc(N3CCCC3=O)cc2)c1 | 193 nM
37 | N#CC1=C2SCC(O)(c3ccccc3)N2C(=O)CC1c1ccccc1 (configuration not stated) | 806 nM
38 | CCN(CC)c1ccc(-c2nn3c(-c4cccnc4)nnc3s2)cc1 | 3270 nM
39 | CCc1cn([C@H]2C[C@H](O)[C@@H](CO)O2)c(=O)[nH]c1=O | > 20000 nM (inactive)
40 | CC(=O)OC[C@H]1O[C@@H](n2ncc(=O)[nH]c2=O)[C@H](OC(C)=O)[C@@H]1OC(C)=O | > 20000 nM (inactive)
41 | COC(=O)CSc1nnc2n(-c3ccc(OC)cc3)c(=O)c3c4c(sc3n12)CCCCC4 | > 20000 nM (inactive)
42 | COc1cccc(NC(=O)CSC2=C(C#N)C(c3ccco3)C3=C(CCCC3=O)N2)c1 (configuration not stated) | 4730 nM

Row | Structure (SMILES) | CC50
43 | CCOc1ccc(C2=Nn3c(nnc3-c3ccccc3OC)SC2)cc1 | 26.7 nM
44 | CCCSc1ccc2nc(NC(=O)OC)[nH]c2c1 | 390 nM
45 | N#CC1=C(SCC(=O)c2ccc(Br)cc2)NC2=C(C(=O)CCC2)C1c1ccco1 (configuration not stated) | 3050 nM
46 | COC(=O)Nc1nc2ccc(C(=O)c3ccccc3)cc2[nH]1 | 229 nM
47 | C[C@H]1CCC/C=C/C2C[C@H](O)CC2[C@H](O)/C=C/C(=O)O1 (some centres not stated) | 368 nM
48 | COc1cccc2c1C(=O)c1c(O)c3c(c(O)c1C2=O)C[C@@](O)(C(=O)CO)C[C@@H]3O[C@H]1C[C@H](N)[C@H](O)[C@H](C)O1 | 261 nM
49 | CC(=O)/C(C#N)=C1\NC(=O)C(Cc2ccccc2Cl)S1 (configuration not stated) | > 20000 nM (inactive)
50 | Cc1ccc(C(=O)CSC2=C(C#N)C(c3ccco3)C3=C(CCCC3=O)N2)cc1 (configuration not stated) | 2400 nM
51 | CCC(NC(=O)Nc1nnc(C(F)(F)F)s1)(C(F)(F)F)C(F)(F)F | 2220 nM
52 | COC(=O)/C(=C1/Oc2cc(C)oc(=O)c2S1)C(F)(F)F | 2850 nM
53 | COC(=O)Nc1nc2ccc(Sc3ccccc3)cc2[nH]1 | 574 nM
54 | COc1cccc(C2=CC(c3ccccc3)n3nnnc3N2)c1 (configuration not stated) | 1770 nM
55 | CO[C@H]1C[C@@H]2CC[C@@H](C)[C@@](O)(O2)C(=O)C(=O)N2CCCC[C@H]2C(=O)O[C@H]([C@H](C)C[C@@H]2CC[C@@H](O)[C@H](OC)C2)CC(=O)[C@H](C)C=C(C)[C@@H](O)[C@@H](OC)C(=O)[C@H](C)C[C@H](C)C=CC=CC=C1C | > 20000 nM (inactive)
56 | CC[C@]1(O)CC2CN(CCc3c([nH]c4ccccc34)[C@@](C(=O)OC)(c3cc4c(cc3OC)N(C=O)[C@H]3[C@@](O)(C(=O)OC)[C@H](OC(C)=O)[C@]5(CC)C=CCN6CC[C@]43[C@@H]65)C2)C1 (some centres not stated) | < 3 nM
57 | Fc1ccc2[nH]c3c(N4CCN(Cc5ccc6c(c5)OCO6)CC4)ncnc3c2c1 | 2710 nM
58 | CCc1nc(N)nc(N)c1-c1ccc(Cl)cc1 | 2600 nM
59 | COc1ccc(C2=Nn3c(nnc3-c3ccccn3)SC2)cc1 | 4780 nM
60 | CC(NC(=O)Nc1nnc(C(F)(F)F)s1)(C(F)(F)F)C(F)(F)F | 2590 nM
61 | O=c1[nH]c(=O)n([C@H]2C[C@H](O)[C@@H](CO)O2)cc1F | 2730 nM
62 | CC(=O)/C(C#N)=C1\NC(=O)C(Cc2ccccc2)S1 (configuration not stated) | > 20000 nM (inactive)

Source: PubChem BioAssay AID364 (The Scripps Research Institute Molecular Screening Center, 2006)
